From patent US20250230193A1, “CYCLIC COMPOUND HAVING SELECTIVE KRAS INHIBITORY EFFECT ON HRAS AND NRAS” (CHUGAI SEIYAKU KABUSHIKI KAISHA, priority 2022, published 2025)

Key:
[1] = target: GDP-bound NRAS wild-type protein (Homo sapiens, UniProt P01111); assay: Binding to NRAS by surface plasmon resonance (SPR), Single Cycle Kinetics; details: KD ratio NRAS/KRAS, class symbols
[2] = target: GDP-bound HRAS wild-type protein (Homo sapiens, UniProt P01112); assay: Binding to HRAS by surface plasmon resonance (SPR), Single Cycle Kinetics; details: KD ratio HRAS/KRAS, class symbols
Chain of GDP-bound HRAS wild-type protein (P01112 whole entry): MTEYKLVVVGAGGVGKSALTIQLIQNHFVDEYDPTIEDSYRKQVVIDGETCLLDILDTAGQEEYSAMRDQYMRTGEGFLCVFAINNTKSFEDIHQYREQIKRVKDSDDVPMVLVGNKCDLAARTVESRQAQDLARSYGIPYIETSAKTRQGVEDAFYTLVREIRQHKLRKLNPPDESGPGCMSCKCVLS

Chain of GDP-bound NRAS wild-type protein (P01111 whole entry): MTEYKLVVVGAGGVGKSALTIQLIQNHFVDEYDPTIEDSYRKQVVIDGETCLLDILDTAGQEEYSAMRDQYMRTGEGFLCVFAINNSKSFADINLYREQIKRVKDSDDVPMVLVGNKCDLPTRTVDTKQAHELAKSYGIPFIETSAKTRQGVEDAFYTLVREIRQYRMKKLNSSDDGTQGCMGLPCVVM

SMILES | NRAS/KRAS (ratio of KD value with respect to GDP-bound NRAS wild-type protein to KD value with respect to KRAS) [1] | HRAS/KRAS (ratio of KD value with respect to GDP-bound HRAS wild-type protein to KD value with respect to KRAS) [2]
CCCOC[C@H]1C(=O)N[C@@H]([C@@H](C)CC)C(=O)N(C)CC(=O)N(C)[C@H]2C/C=C\CCN(C2=O)[C@@H](Cc2ccc(C)cc2)C(=O)N(C)CC(=O)N[C@@H](CCc2cc(F)c(C(F)(F)F)c(F)c2)C(=O)N2C[C@H](OCC)C[C@H]2C(=O)NC2(CC(C)(C)C2)C(=O)N(C)[C@@H](CC(C)(C)C)C(=O)N(C)[C@H](C(=O)N(C)C)CC(=O)N1C [PP2708] | A (a compound having 10 or more and less than 20 is denoted as A) | A (a compound having 10 or more and less than 20 is denoted as A)
CCC[C@H]1C(=O)N[C@@H]([C@@H](C)CC)C(=O)N(C)CC(=O)N(C)[C@H]2C/C=C\CCN(C2=O)[C@@H](Cc2ccc(C)cc2)C(=O)N(C)CC(=O)N[C@@H](CCc2ccc(C(F)(F)F)c(OC)c2)C(=O)N2C[C@H](OCC)C[C@H]2C(=O)NC2(CC(C)(C)C2)C(=O)N(C)[C@@H](CC(C)(C)C)C(=O)N(C)[C@H](C(=O)N(C)C)CC(=O)N1C [PP2710] | B (a compound having 3 or more and less than 10 is denoted as B) | B (a compound having 3 or more and less than 10 is denoted as B)
CCCOC[C@H]1C(=O)N[C@@H]([C@@H](C)CC)C(=O)N(C)CC(=O)N(C)[C@H]2C/C=C\CCN(C2=O)[C@@H](Cc2ccc(C)cc2)C(=O)N(C)CC(=O)N[C@@H](CCc2ccc(C(F)(F)F)c(OC)c2)C(=O)N2C[C@H](OCC)C[C@H]2C(=O)NC2(CC(C)(C)C2)C(=O)N(C)[C@@H](CC(C)(C)C)C(=O)N(C)[C@H](C(=O)N(C)C)CC(=O)N1C [PP2712] | A (a compound having 10 or more and less than 20 is denoted as A) | B (a compound having 3 or more and less than 10 is denoted as B)
CCC[C@H]1C(=O)N[C@@H]([C@@H](C)CC)C(=O)N(C)CC(=O)N(C)[C@H]2C/C=C\CCN(C2=O)[C@@H](Cc2ccc(C)cc2)C(=O)N(C)CC(=O)N[C@@H](CCc2ccc(Cl)c(Cl)c2)C(=O)N2C[C@H](OCC)C[C@H]2C(=O)NC2(CC(C)(C)C2)C(=O)N(C)[C@@H](CC(C)(C)C)C(=O)N(C)[C@H](C(=O)N(C)C)CC(=O)N1C [PP2714] | A (a compound having 10 or more and less than 20 is denoted as A) | A (a compound having 10 or more and less than 20 is denoted as A)
CCCOC[C@H]1C(=O)N[C@@H]([C@@H](C)CC)C(=O)N(C)CC(=O)N(C)[C@H]2C/C=C\CCN(C2=O)[C@@H](Cc2ccc(C)cc2)C(=O)N(C)CC(=O)N[C@@H](CCc2ccc(Cl)c(Cl)c2)C(=O)N2C[C@H](OCC)C[C@H]2C(=O)NC2(CC(C)(C)C2)C(=O)N(C)[C@@H](CC(C)(C)C)C(=O)N(C)[C@H](C(=O)N(C)C)CC(=O)N1C [PP2716] | A (a compound having 10 or more and less than 20 is denoted as A) | A (a compound having 10 or more and less than 20 is denoted as A)
CCC[C@H]1C(=O)N[C@@H]([C@@H](C)CC)C(=O)N(C2CC2)CC(=O)N(C)[C@H]2C/C=C\CCN(C2=O)[C@@H](Cc2ccc(C)cc2)C(=O)N(C)CC(=O)N[C@@H](CCc2cc(F)c(C(F)(F)F)c(F)c2)C(=O)N2C[C@H](OCC)C[C@H]2C(=O)NC2(CC(C)(C)C2)C(=O)N(C)[C@@H](CC(C)(C)C)C(=O)N(C)[C@H](C(=O)N(C)C)CC(=O)N1C [PP2718] | A (a compound having 10 or more and less than 20 is denoted as A) | A (a compound having 10 or more and less than 20 is denoted as A)
CCOC[C@H]1C(=O)N[C@@H]([C@@H](C)CC)C(=O)N(C2CC2)CC(=O)N(C)[C@H]2C/C=C\CCN(C2=O)[C@@H](Cc2ccc(C)cc2)C(=O)N(C)CC(=O)N[C@@H](CCc2cc(F)c(C(F)(F)F)c(F)c2)C(=O)N2C[C@H](OCC)C[C@H]2C(=O)NC2(CC(C)(C)C2)C(=O)N(C)[C@@H](CC(C)(C)C)C(=O)N(C)[C@H](C(=O)N(C)C)CC(=O)N1C [PP2720] | A (a compound having 10 or more and less than 20 is denoted as A) | A (a compound having 10 or more and less than 20 is denoted as A)
CCC[C@H]1C(=O)N[C@@H]([C@@H](C)CC)C(=O)N(C2CC2)CC(=O)N(C)[C@H]2C/C=C\CCN(C2=O)[C@@H](Cc2ccc(C)cc2)C(=O)N(C)CC(=O)N[C@@H](CCc2ccc(C(F)(F)F)c(OC)c2)C(=O)N2C[C@H](OCC)C[C@H]2C(=O)NC2(CC(C)(C)C2)C(=O)N(C)[C@@H](CC(C)(C)C)C(=O)N(C)[C@H](C(=O)N(C)C)CC(=O)N1C [PP2722] | B (a compound having 3 or more and less than 10 is denoted as B) | B (a compound having 3 or more and less than 10 is denoted as B)
CCOC[C@H]1C(=O)N[C@@H]([C@@H](C)CC)C(=O)N(C2CC2)CC(=O)N(C)[C@H]2C/C=C\CCN(C2=O)[C@@H](Cc2ccc(C)cc2)C(=O)N(C)CC(=O)N[C@@H](CCc2ccc(C(F)(F)F)c(OC)c2)C(=O)N2C[C@H](OCC)C[C@H]2C(=O)NC2(CC(C)(C)C2)C(=O)N(C)[C@@H](CC(C)(C)C)C(=O)N(C)[C@H](C(=O)N(C)C)CC(=O)N1C [PP2724] | A (a compound having 10 or more and less than 20 is denoted as A) | B (a compound having 3 or more and less than 10 is denoted as B)
CCC[C@H]1C(=O)N[C@@H]([C@@H](C)CC)C(=O)N(C2CC2)CC(=O)N(C)[C@H]2C/C=C\CCN(C2=O)[C@@H](Cc2ccc(C)cc2)C(=O)N(C)CC(=O)N[C@@H](CCc2ccc(Cl)c(Cl)c2)C(=O)N2C[C@H](OCC)C[C@H]2C(=O)NC2(CC(C)(C)C2)C(=O)N(C)[C@@H](CC(C)(C)C)C(=O)N(C)[C@H](C(=O)N(C)C)CC(=O)N1C [PP2726] | AA (a compound having 20 or more is denoted as AA) | A (a compound having 10 or more and less than 20 is denoted as A)
CCOC[C@H]1C(=O)N[C@@H]([C@@H](C)CC)C(=O)N(C2CC2)CC(=O)N(C)[C@H]2C/C=C\CCN(C2=O)[C@@H](Cc2ccc(C)cc2)C(=O)N(C)CC(=O)N[C@@H](CCc2ccc(Cl)c(Cl)c2)C(=O)N2C[C@H](OCC)C[C@H]2C(=O)NC2(CC(C)(C)C2)C(=O)N(C)[C@@H](CC(C)(C)C)C(=O)N(C)[C@H](C(=O)N(C)C)CC(=O)N1C [PP2728] | AA (a compound having 20 or more is denoted as AA) | A (a compound having 10 or more and less than 20 is denoted as A)
CCOC[C@H]1C(=O)N[C@@H]([C@@H](C)CC)C(=O)N(C)CC(=O)N(C)[C@H]2C/C=C\CCN(C2=O)[C@@H](Cc2ccc(C(F)(F)F)cc2)C(=O)N(C)CC(=O)N[C@@H](CCc2cc(F)c(C(F)(F)F)c(F)c2)C(=O)N2C[C@H](OCC)C[C@H]2C(=O)NC2(CC(C)(C)C2)C(=O)N(C)[C@@H](CC(C)(C)C)C(=O)N(C)[C@H](C(=O)N(C)C)CC(=O)N1C [PP2732] | A (a compound having 10 or more and less than 20 is denoted as A) | A (a compound having 10 or more and less than 20 is denoted as A)
CCC[C@H]1C(=O)N[C@@H]([C@@H](C)CC)C(=O)N(C)CC(=O)N(C)[C@H]2C/C=C\CCN(C2=O)[C@@H](Cc2ccc(C(F)(F)F)cc2)C(=O)N(C)CC(=O)N[C@@H](CCc2ccc(C(F)(F)F)c(OC)c2)C(=O)N2C[C@H](OCC)C[C@H]2C(=O)NC2(CC(C)(C)C2)C(=O)N(C)[C@@H](CC(C)(C)C)C(=O)N(C)[C@H](C(=O)N(C)C)CC(=O)N1C [PP2734] | A (a compound having 10 or more and less than 20 is denoted as A) | B (a compound having 3 or more and less than 10 is denoted as B)
CCOC[C@H]1C(=O)N[C@@H]([C@@H](C)CC)C(=O)N(C)CC(=O)N(C)[C@H]2C/C=C\CCN(C2=O)[C@@H](Cc2ccc(C(F)(F)F)cc2)C(=O)N(C)CC(=O)N[C@@H](CCc2ccc(C(F)(F)F)c(OC)c2)C(=O)N2C[C@H](OCC)C[C@H]2C(=O)NC2(CC(C)(C)C2)C(=O)N(C)[C@@H](CC(C)(C)C)C(=O)N(C)[C@H](C(=O)N(C)C)CC(=O)N1C [PP2736] | A (a compound having 10 or more and less than 20 is denoted as A) | A (a compound having 10 or more and less than 20 is denoted as A)
CCC[C@H]1C(=O)N[C@@H]([C@@H](C)CC)C(=O)N(C)CC(=O)N(C)[C@H]2C/C=C\CCN(C2=O)[C@@H](Cc2ccc(C(F)(F)F)cc2)C(=O)N(C)CC(=O)N[C@@H](CCc2ccc(Cl)c(Cl)c2)C(=O)N2C[C@H](OCC)C[C@H]2C(=O)NC2(CC(C)(C)C2)C(=O)N(C)[C@@H](CC(C)(C)C)C(=O)N(C)[C@H](C(=O)N(C)C)CC(=O)N1C [PP2738] | AA (a compound having 20 or more is denoted as AA) | A (a compound having 10 or more and less than 20 is denoted as A)
CCOC[C@H]1C(=O)N[C@@H]([C@@H](C)CC)C(=O)N(C)CC(=O)N(C)[C@H]2C/C=C\CCN(C2=O)[C@@H](Cc2ccc(C(F)(F)F)cc2)C(=O)N(C)CC(=O)N[C@@H](CCc2ccc(Cl)c(Cl)c2)C(=O)N2C[C@H](OCC)C[C@H]2C(=O)NC2(CC(C)(C)C2)C(=O)N(C)[C@@H](CC(C)(C)C)C(=O)N(C)[C@H](C(=O)N(C)C)CC(=O)N1C [PP2740] | AA (a compound having 20 or more is denoted as AA) | A (a compound having 10 or more and less than 20 is denoted as A)
